Laboratory results published in patent US20220356186A1, “PERK INHIBITING PYRROLOPYRIMIDINE COMPOUNDS” (HiberCell, Inc., priority 2019, published 2022).
Read-outs that look alike come from different tables or passages of the source.

Legend:
[1] = test system: GFP-eIF2α in HEK293 cells; experiment: PERK cellular assay, TR-FRET in HEK293-EGFP-eIF2a cells after tunicamycin-induced ER stress; format: cell-based; settings: HEK293-EGFP-eIF2a cells, tunicamycin 2 hours, read-out: Cellular eIF2α IC50
Summary of the method: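 HEK293 cells stably expressing GFP-eIF2α, plated 5000 cells/well overnight, pretreated with inhibitors 30 min at 37 °C, then ER stress induced with tunicamycin […] for 2 h.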

[2] = molecular target: T1, EIF2AK3 (PERK) catalytic domain (amino acids 536-1116) (Homo sapiens, UniProt Q9NZJ5); experiment: PERK in vitro activity assay (isolated), TR-FRET kinase assay; format: biochemical; settings: isolated PERK enzyme, 1.5 μM ATP; read-out: Biochemical IC50
T1 construct: EIF2AK3 (PERK) catalytic domain (amino acids 536-1116)
T1 sequence (Q9NZJ5 536-1116): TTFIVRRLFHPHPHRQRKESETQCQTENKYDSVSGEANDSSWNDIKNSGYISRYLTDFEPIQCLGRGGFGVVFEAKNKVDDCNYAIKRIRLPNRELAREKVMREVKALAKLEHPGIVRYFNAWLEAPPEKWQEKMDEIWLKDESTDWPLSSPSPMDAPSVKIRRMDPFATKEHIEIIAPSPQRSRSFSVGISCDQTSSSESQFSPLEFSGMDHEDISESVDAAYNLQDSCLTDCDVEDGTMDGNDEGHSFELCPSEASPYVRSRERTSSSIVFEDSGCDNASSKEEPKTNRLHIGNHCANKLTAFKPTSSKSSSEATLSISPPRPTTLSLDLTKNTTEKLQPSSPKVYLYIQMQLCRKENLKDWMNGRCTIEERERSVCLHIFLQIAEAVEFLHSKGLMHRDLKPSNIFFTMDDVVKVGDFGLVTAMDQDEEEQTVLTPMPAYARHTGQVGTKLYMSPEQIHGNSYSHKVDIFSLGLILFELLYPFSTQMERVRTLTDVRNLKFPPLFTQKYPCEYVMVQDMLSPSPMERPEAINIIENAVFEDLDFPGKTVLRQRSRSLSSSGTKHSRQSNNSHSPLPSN
Summary of the method: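 Human PERK catalytic domain (aa 536-1116) phosphorylating 100-200 nM GFP-eIF2a in 50 mM HEPES pH 7.5, 10 mM MgCl2, 1 mM EGTA, 0.01% Brij-35; enzyme-started, 45 min at room temperature. Stopped with 10 mM EDTA, 2 nM Tb-anti-phospho-eIF2a added for 90 min; IC50 from TR-FRET ratios by 4-parameter logistic fit.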

SMILES | IC50 [2] [nM] | IC50 [1] [nM] | IC50 ([1]; Homo sapiens, HEK293, 2 h) [nM]
Cc1nc(N)c2c(-c3ccc(NC(=O)C(O)c4cc(F)cc(F)c4)cc3C)cn(C)c2n1 (centres unmarked) [Example 53, N-(4-(4-amino-2,7-dimethyl-7H-pyrrolo[2,3-d]pyrimidin-5-yl)-3-methylphenyl)-2-(3,5-difluorophenyl)-2-hydroxyacetamide] | 26 to 50 | 251 to 500 | 
Cc1cc(F)cc(C(O)C(=O)Nc2ccc(-c3cn(C)c4nc(C)nc(N)c34)c(C)c2)c1 (centres unmarked) [Example 56, N-(4-(4-amino-2,7-dimethyl-7H-pyrrolo[2,3-d]pyrimidin-5-yl)-3-methylphenyl)-2-(3-fluoro-5-methylphenyl)-2-hydroxyacetamide] | 1 to 25 | 1 to 25 | 
CCc1cc(F)cc(C(O)C(=O)Nc2ccc(-c3cn(C)c4nc(C)nc(N)c34)c(C)c2)c1 (centres unmarked) [Example 58, N-(4-(4-amino-2,7-dimethyl-7H-pyrrolo[2,3-d]pyrimidin-5-yl)-3-methylphenyl)-2-(3-ethyl-5-fluorophenyl)-2-hydroxyacetamide] | 1 to 25 | 51 to 100 | 
Cc1nc(N)c2c(-c3ccc(NC(=O)C(O)c4cccc5c4OCC5)cc3C)cn(C)c2n1 (centres unmarked) [Example 63, N-(4-(4-amino-2,7-dimethyl-7H-pyrrolo[2,3-d]pyrimidin-5-yl)-3-methylphenyl)-2-(2,3-dihydrobenzofuran-7-yl)-2-hydroxyacetamide] | 101 to 250 |  | 2000 to 3000
CCc1nc(N)c2c(-c3ccc(NC(=O)C(O)c4cccc(F)c4)cc3C)cn(C)c2n1 (centres unmarked) [Example 67, N-(4-(4-amino-2-ethyl-7-methyl-7H-pyrrolo[2,3-d]pyrimidin-5-yl)-3-methylphenyl)-2-(3-fluorophenyl)-2-hydroxyacetamide] | 101 to 250 |  | 1000 to 2000
CCc1cc(NC(=O)C(O)c2cccc(F)c2)ccc1-c1cn(C)c2nc(C)nc(N)c12 (centres unmarked) [Example 68, N-(4-(4-amino-2-2,7-dimethyl-7H-pyrrolo[2,3-d]pyrimidin-5-yl)-3-ethylphenyl)-2-(3-fluorophenyl)-2-hydroxyacetamide] | 1 to 25 | 26 to 50 | 
CCc1cc(NC(=O)C(O)c2cccc(F)c2)ccc1-c1cn(C)c2nc(C)nc(N)c12 (centres unmarked) [Example 69, N-(4-(4-amino-2,7-dimethyl-7H-pyrrolo[2,3-d]pyrimidin-5-yl)-3-ethylphenyl)-2-(3-fluorophenyl)-2-hydroxyacetamide] | 101 to 250 | 2000 to 3000 | 
Cc1nc(N)c2c(-c3ccc(NC(=O)C(O)c4ccccc4Cl)cc3F)cn(C)c2n1 (centres unmarked) [Example 70, N-(4-(4-amino-2,7-dimethyl-7H-pyrrolo[2,3-d]pyrimidin-5-yl)-3-fluorophenyl)-2-(2-chlorophenyl)-2-hydroxyacetamide] | 1000 to 2000 |  | > 5000
Cc1cccc(C(O)C(=O)Nc2ccc(-c3cn(C)c4nc(C)nc(N)c34)c(F)c2)c1 (centres unmarked) [Example 74, N-(4-(4-amino-2,7-dimethyl-7H-pyrrolo[2,3-d]pyrimidin-5-yl)-3-fluorophenyl)-2-hydroxy-2-(m-tolyl)acetamide] | 1 to 25 | 1 to 25 | 
CCc1cccc(C(O)C(=O)Nc2ccc(-c3cn(C)c4nc(C)nc(N)c34)c(F)c2)c1 (centres unmarked) [Example 75, N-(4-(4-amino-2,7-dimethyl-7H-pyrrolo[2,3-d]pyrimidin-5-yl)-3-fluorophenyl)-2-(3-ethylphenyl)-2-hydroxyacetamide] | 51 to 100 | 1000 to 2000 | 
CCc1cccc(C(O)C(=O)Nc2ccc(-c3cn(C)c4nc(C)nc(N)c34)c(F)c2)c1 (centres unmarked) [Example 76, N-(4-(4-amino-2,7-dimethyl-7H-pyrrolo[2,3-d]pyrimidin-5-yl)-3-fluorophenyl)-2-(3-ethylphenyl)-2-hydroxyacetamide] | 1 to 25 | 1 to 25 | 
Cc1nc(N)c2c(-c3ccc(NC(=O)C(O)c4ccccc4C(F)(F)F)cc3F)cn(C)c2n1 (centres unmarked) [Example 77, N-(4-(4-amino-2,7-dimethyl-7H-pyrrolo[2,3-d]pyrimidin-5-yl)-3-fluorophenyl)-2-hydroxy-2-(2-(trifluoromethyl)phenyl)acetamide] | 26 to 50 |  | 501 to 1000
Cc1nc(N)c2c(-c3ccc(NC(=O)C(O)c4cccc(F)c4)cc3F)cn(C)c2n1 (centres unmarked) [Example 79, N-(4-(4-amino-2,7-dimethyl-7H-pyrrolo[2,3-d]pyrimidin-5-yl)-3-fluorophenyl)-2-(3-fluorophenyl)-2-hydroxyacetamide] | 51 to 100 | 501 to 1000 | 
Cc1nc(N)c2c(-c3ccc(NC(=O)C(O)c4cccc(F)c4)cc3F)cn(C)c2n1 (centres unmarked) [Example 80, N-(4-(4-amino-2,7-dimethyl-7H-pyrrolo[2,3-d]pyrimidin-5-yl)-3-fluorophenyl)-2-(3-fluorophenyl)-2-hydroxyacetamide] | 1 to 25 | 26 to 50 | 
Cc1nc(N)c2c(-c3ccc(NC(=O)C(O)c4cccc(Cl)c4)cc3F)cn(C)c2n1 (centres unmarked) [Example 81, N-(4-(4-amino-2,7-dimethyl-7H-pyrrolo[2,3-d]pyrimidin-5-yl)-3-fluorophenyl)-2-(3-chlorophenyl)-2-hydroxyacetamide] | 51 to 100 | 101 to 250 | 

The next lines start with results.

IC50 [2] [nM] | SMILES | IC50 [1] [nM] | IC50 ([1]; Homo sapiens, HEK293, 2 h) [nM]
26 to 50 | Cc1cc(F)cc(C(O)C(=O)Nc2ccc(-c3cn(C)c4nc(C)nc(N)c34)c(C)c2)c1 (centres unmarked) [Example 57, N-(4-(4-amino-2,7-dimethyl-7H-pyrrolo[2,3-d]pyrimidin-5-yl)-3-methylphenyl)-2-(3-fluoro-5-methylphenyl)-2-hydroxyacetamide] | 101 to 250 | 
51 to 100 | CCc1cc(F)cc(C(O)C(=O)Nc2ccc(-c3cn(C)c4nc(C)nc(N)c34)c(C)c2)c1 (centres unmarked) [Example 59, N-(4-(4-amino-2,7-dimethyl-7H-pyrrolo[2,3-d]pyrimidin-5-yl)-3-methylphenyl)-2-(3-ethyl-5-fluorophenyl)-2-hydroxyacetamide] | 251 to 500 | 
1 to 25 | Cc1cccc(C(O)C(=O)Nc2ccc(-c3cn(C)c4ncnc(N)c34)c(C)c2)n1 (centres unmarked) [Example 60, N-(4-(4-amino-7-methyl-7H-pyrrolo[2,3-d]pyrimidin-5-yl)-3-methylphenyl)-2-hydroxy-2-(6-methylpyridin-2-yl)acetamide] |  | 101 to 250
101 to 250 | Cc1nc(N)c2c(-c3ccc(NC(=O)C(O)c4cccc(C(F)(F)F)n4)cc3C)cn(C)c2n1 (centres unmarked) [Example 61, N-(4-(4-amino-2,7-dimethyl-7H-pyrrolo[2,3-d]pyrimidin-5-yl)-3-methylphenyl)-2-hydroxy-2-(6-(trifluoromethyl)pyridin-2-yl)acetamide] | 501 to 1000 | 
51 to 100 | Cc1nc(N)c2c(-c3ccc(NC(=O)C(O)c4cccc(C(F)(F)F)n4)cc3C)cn(C)c2n1 (centres unmarked) [Example 62, N-(4-(4-amino-2,7-dimethyl-7H-pyrrolo[2,3-d]pyrimidin-5-yl)-3-methylphenyl)-2-hydroxy-2-(6-(trifluoromethyl)pyridin-2-yl)acetamide] | 2000 to 3000 | 
26 to 50 | Cc1cccc(C(O)C(=O)Nc2ccc(-c3cn(C)c4nc(C)nc(N)c34)c(F)c2)c1 (centres unmarked) [Example 73, N-(4-(4-amino-2,7-dimethyl-7H-pyrrolo[2,3-d]pyrimidin-5-yl)-3-fluorophenyl)-2-hydroxy-2-(m-tolyl)acetamide] | 501 to 1000 | 
1 to 25 | Cc1nc(N)c2c(-c3ccc(NC(=O)C(O)c4cccc(C(F)(F)F)c4)cc3F)cn(C)c2n1 (centres unmarked) [Example 78, N-(4-(4-amino-2,7-dimethyl-7H-pyrrolo[2,3-d]pyrimidin-5-yl)-3-fluorophenyl)-2-hydroxy-2-(3-(trifluoromethyl)phenyl)acetamide] |  | 1 to 25
